Laboratory results published in patent US20240254119A1 (THIRD HARMONIC BIO, INC., priority 2022, published 2024).

The compounds below were run against T1, wtKIT (Homo sapiens, UniProt P10721) (assay: HTRF biochemical assay, wtKIT (phosphorylation of a peptide substrate)). Settings: Table 4.
T1 construct: 1888289AM in the reaction mixtures
Summary of the method: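 wtKIT (5.0 nM) phosphorylating 1 µM FAM-labelled peptide with 400 µM ATP and 10 mM MnCl2 in 100 mM HEPES pH 7.5, 1% DMSO, 3 h at 25 °C. EDTA quench; phosphopeptide detected with anti-phosphotyrosine antibody by HTRF. Enzyme titrated for 10-20% substrate conversion.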

T1 sequence (P10721 26-976): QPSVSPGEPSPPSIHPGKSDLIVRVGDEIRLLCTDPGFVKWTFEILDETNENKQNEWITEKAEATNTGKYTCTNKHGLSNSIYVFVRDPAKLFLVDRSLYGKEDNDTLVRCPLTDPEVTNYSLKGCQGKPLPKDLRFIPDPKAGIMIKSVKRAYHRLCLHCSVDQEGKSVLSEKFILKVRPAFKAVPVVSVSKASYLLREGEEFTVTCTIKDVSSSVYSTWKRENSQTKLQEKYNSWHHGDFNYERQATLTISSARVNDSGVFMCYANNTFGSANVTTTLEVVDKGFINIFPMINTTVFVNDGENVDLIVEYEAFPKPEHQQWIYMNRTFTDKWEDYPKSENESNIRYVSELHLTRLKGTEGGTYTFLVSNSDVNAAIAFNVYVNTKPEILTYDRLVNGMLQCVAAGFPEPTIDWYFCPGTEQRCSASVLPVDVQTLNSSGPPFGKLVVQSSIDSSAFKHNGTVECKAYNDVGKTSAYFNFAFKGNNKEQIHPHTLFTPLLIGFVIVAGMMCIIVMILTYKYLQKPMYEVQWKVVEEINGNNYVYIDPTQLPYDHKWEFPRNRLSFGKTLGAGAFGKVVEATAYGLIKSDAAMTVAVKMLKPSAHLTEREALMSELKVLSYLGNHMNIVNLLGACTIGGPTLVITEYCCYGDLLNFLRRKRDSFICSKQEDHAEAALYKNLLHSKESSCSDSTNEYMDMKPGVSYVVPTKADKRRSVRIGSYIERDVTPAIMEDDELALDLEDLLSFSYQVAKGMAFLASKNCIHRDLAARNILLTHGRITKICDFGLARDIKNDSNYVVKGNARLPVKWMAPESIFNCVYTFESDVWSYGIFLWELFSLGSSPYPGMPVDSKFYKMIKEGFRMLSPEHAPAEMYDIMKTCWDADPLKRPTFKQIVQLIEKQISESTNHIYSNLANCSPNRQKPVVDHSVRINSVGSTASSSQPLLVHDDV

| SMILES | IC50 [nM] |
| --- | --- |
| Cc1ccc(-c2noc([C@H](O)CO)n2)cc1NC(=O)c1cnc2cc(Cl)ccn12 [Compound I-604] | 500 to 5000 |
| Cc1ccc(-c2noc([C@H]3C[C@@H]3F)n2)cc1NC(=O)c1cnc2cc(F)c(Cl)cn12 [Compound I-605] | 50 to 500 |
| Cc1ccc(-c2noc(CC(C)O)n2)cc1NC(=O)c1cnc2cc(F)ccn12 (stereo not drawn) [Compound I-606] | 50 to 500 |
| COC[C@@H](O)c1nc(-c2ccc(C)c(NC(=O)c3cnc4cc(C)ccn34)c2)no1 [Compound I-607] | 500 to 5000 |
| COCC(O)c1nc(-c2ccc(C)c(NC(=O)c3cnc4cc(C)ccn34)c2)no1 (stereo not drawn) [Compound I-608] | 50 to 500 |
| Cc1ccc(-c2noc(N3CC(F)(F)C3)n2)cc1NC(=O)c1cnc2cc(F)c(Cl)cn12 [Compound I-610] | 50 to 500 |
| Cc1ccc(-c2noc([C@H]3C[C@@H](N)C3)n2)cc1NC(=O)c1cnc2cc(Cl)ccn12 [Compound I-623] | 500 to 5000 |
| Cc1ccc(-c2noc(N3CC(F)(F)C3)n2)cc1NC(=O)c1cnn2cc(F)ccc12 [Compound I-626] | 50 to 500 |
| Cc1ccc(-c2noc(CC3COC3)n2)cc1NC(=O)c1cnc2cc(COCC3(O)CC3)ccn12 [Compound I-637] | 50 to 500 |
| Cc1ccc(-c2ncon2)cc1NC(=O)c1cnn2ccccc12 [Compound I-640, N-(2-methyl-5-(1,2,4-oxadiazol-3-yl)phenyl)pyrazolo[1,5-a]pyridine-3-carboxamide] | 50 to 500 |
| Cc1ccc(-c2ncon2)cc1NC(=O)c1cnc2cc(COCC(C)(C)O)ccn12 [Compound I-641, 7-((2-hydroxy-2-methylpropoxy)methyl)-N-(2-methyl-5-(1,2,4-oxadiazol-3-yl)phenyl)imidazo[1,2-a]pyridine-3-carboxamide] | 500 to 5000 |
| COCc1ccn2c(C(=O)Nc3cc(-c4noc(CCN5CCCCC5)n4)ccc3C)cnc2c1 [Compound I-666] | 50 to 500 |
| COCc1ccn2c(C(=O)Nc3cc(-c4ncon4)ccc3C)cnc2c1 [Compound I-677] | 50 to 500 |
| Cc1nc(-c2ccc(C)c(NC(=O)c3cnc4cc(C5COC5)ccn34)c2)no1 [Compound I-687] | 50 to 500 |
| Cc1ccc(-c2ncon2)cc1NC(=O)c1cnc2cc(COCCO)ccn12 [Compound I-700] | 50 to 500 |
| CCNc1ccn2c(C(=O)Nc3cc(-c4ncon4)ccc3C)cnc2c1 [Compound I-706] | ≤ 50 |
| Cc1ccc(-c2noc(-c3cccnc3)n2)cc1NC(=O)c1cnc2cc(COCCO)ccn12 [Compound I-708] | 50 to 500 |
| Cc1ccc(-c2noc(N3CC(F)(F)C3)n2)nc1NC(=O)c1cnc2ccccn12 [Compound I-711] | 50 to 500 |
| Cc1ccc(-c2ncon2)cc1NC(=O)c1cnc2cc(N3CCCCC3)ccn12 [Compound I-712] | 50 to 500 |
| Cc1ccc(-c2ncon2)cc1NC(=O)c1cnc2cc(N3CCOCC3)ccn12 [Compound I-717] | ≤ 50 |
| Cc1ccc(-c2ncon2)cc1NC(=O)c1cnc2cc(N(C)C)ccn12 [Compound I-718] | ≤ 50 |
| Cc1ccc(-c2noc(-c3ccccc3)n2)cc1NC(=O)c1cnc2cc(COCCO)ccn12 [Compound I-719] | ≤ 50 |
| CCc1nc(-c2ccc(C)c(NC(=O)c3cnc4cc(-c5cscn5)ccn34)c2)no1 [Compound I-720] | ≤ 50 |
| Cc1ccc(-c2noc([C@H](C)O)n2)cc1NC(=O)c1cnc2cc(-c3cscn3)ccn12 [Compound I-721] | ≤ 50 |
| CCc1nc(-c2ccc(C)c(NC(=O)c3cnn4cc(-c5ccn(C)n5)ccc34)c2)no1 [Compound I-722] | ≤ 50 |
| Cc1ccc(-c2noc(-c3cccnc3)n2)cc1NC(=O)c1cnn2cc(-c3ccn(C)n3)ccc12 [Compound I-723] | ≤ 50 |
| Cc1ccn2c(C(=O)Nc3cc(-c4noc(-c5cccnc5)n4)ccc3C)cnc2c1 [Compound I-726] | 50 to 500 |
| Cc1ccc(-c2noc(C3CC(O)C3)n2)cc1NC(=O)c1cnc2cc(-c3ccn(C)n3)ccn12 (stereo not drawn) [Compound I-727] | ≤ 50 |

More lines, now with the values ahead:

| IC50 [nM] | SMILES |
| --- | --- |
| ≤ 50 | Cc1ccc(-c2noc(N3CC(F)(F)C3)n2)cc1NC(=O)c1cnc2cc(Cl)ccn12 [Compound I-601, 7-chloro-N-(5-(5-(3,3-difluoroazetidin-1-yl)-1,2,4-oxadiazol-3-yl)-2-methylphenyl)imidazo[1,2-a]pyridine-3-carboxamide] |
| ≤ 50 | Cc1ccc(-c2noc(C[C@H](C)O)n2)cc1NC(=O)c1cnc2cc(Cl)ccn12 [Compound I-602] |
| ≤ 50 | COc1ccn2c(C(=O)Nc3cc(-c4noc(N5CC(F)(F)C5)n4)ccc3C)cnc2c1 [Compound I-603, N-(5-(5-(3,3-difluoroazetidin-1-yl)-1,2,4-oxadiazol-3-yl)-2-methylphenyl)-7-methoxyimidazo[1,2-a]pyridine-3-carboxamide] |
| ≤ 50 | COc1cc2ncc(C(=O)Nc3cc(-c4noc(N5CC(F)(F)C5)n4)ccc3C)n2cc1F [Compound I-611] |
| ≤ 50 | Cc1ccc(-c2noc([C@H]3C[C@@H]3F)n2)cc1NC(=O)c1cnc2cc(Cl)c(F)cn12 [Compound I-613, 7-Chloro-6-fluoro-N-(5-(5-((1R,2S)-2-fluorocyclopropyl)-1,2,4-oxadiazol-3-yl)-2-methylphenyl)imidazo[1,2-a]pyridine-3-carboxamide] |
| ≤ 50 | Cc1ccc(-c2noc(CC3CCCO3)n2)cc1NC(=O)c1cnc2cc(Cl)ccn12 (stereo not drawn) [Compound I-615, 7-Chloro-N-[2-methyl-5-[5-(tetrahydrofuran-2-ylmethyl)-1,2,4-oxadiazol-3-yl]phenyl]imidazo[1,2-a]pyridine-3-carboxamide] |
| ≤ 50 | CC[C@@H](O)Cc1nc(-c2ccc(C)c(NC(=O)c3cnc4cc(Cl)ccn34)c2)no1 [Compound I-616, 7-chloro-N-[5-[5-[(2R)-2-hydroxybutyl]-1,2,4-oxadiazol-3-yl]-2-methyl-phenyl]imidazo[1,2-a]pyridine-3-carboxamide] |
| ≤ 50 | Cc1ccc(-c2noc([C@H]3C[C@@H]3F)n2)cc1NC(=O)c1cnc2cc(COCC3(O)CC3)ccn12 [Compound I-622, N-(5-(5-((1R,2S)-2-fluorocyclopropyl)-1,2,4-oxadiazol-3-yl)-2-methylphenyl)-7-(((1-hydroxycyclopropyl)methoxy)methyl)imidazo[1,2-a]pyridine-3-carboxamide] |
| ≤ 50 | Cc1ccc(-c2noc([C@H]3CCN3)n2)cc1NC(=O)c1cnc2cc(-c3ccn(C)n3)ccn12 [Compound I-624, N-[5-[5-[(2R)-azetidin-2-yl]-1,2,4-oxadiazol-3-yl]-2-methyl-phenyl]-7-(1-methylpyrazol-3-yl)imidazo[1,2-a]pyridine-3-carboxamide] |
| ≤ 50 | Cc1ccc(-c2noc(N3CC(F)(F)C3)n2)cc1NC(=O)c1cnn2cc(Cl)ccc12 [Compound I-625] |
| ≤ 50 | Cc1ccc(-c2noc([C@@H]3CC4(CC4)CN3)n2)cc1NC(=O)c1cnc2cc(Cl)ccn12 [Compound I-627, (S)—N-(5-(5-(5-azaspiro[2.4]heptan-6-yl)-1,2,4-oxadiazol-3-yl)-2-methylphenyl)-7-chloroimidazo[1,2-a]pyridine-3-carboxamide] |
| ≤ 50 | Cc1ccc(-c2noc([C@@H]3CC4(CC4)CN3)n2)cc1NC(=O)c1cnc2cc(F)ccn12 [Compound I-628, (S)—N-(5-(5-(5-azaspiro[2.4]heptan-6-yl)-1,2,4-oxadiazol-3-yl)-2-methylphenyl)-7-fluoroimidazo[1,2-a]pyridine-3-carboxamide] |
| ≤ 50 | Cc1nc(-c2ccc(C)c(NC(=O)c3cnc4cc(OCCCN5CCCC5)ccn34)c2)no1 [Compound I-629, N-(2-methyl-5-(5-methyl-1,2,4-oxadiazol-3-yl)phenyl)-7-(3-(pyrrolidin-1-yl)propoxy)imidazo[1,2-a]pyridine-3-carboxamide] |
| ≤ 50 | Cc1ccc(-c2noc([C@H]3C[C@@H]3F)n2)cc1NC(=O)c1cnc2cc(OCCCN3CCCC3)ccn12 [Compound I-630, N-(5-(5-((1R,2S)-2-fluorocyclopropyl)-1,2,4-oxadiazol-3-yl)-2-methylphenyl)-7-(3-(pyrrolidin-1-yl)propoxy)imidazo[1,2-a]pyridine-3-carboxamide] |
| ≤ 50 | Cc1ccc(-c2noc(N3CC(F)(F)C3)n2)cc1NC(=O)c1cnc2cc(OCCCN3CCCC3)ccn12 [Compound I-631, N-(5-(5-(3,3-difluoroazetidin-1-yl)-1,2,4-oxadiazol-3-yl)-2-methylphenyl)-7-(3-(pyrrolidin-1-yl)propoxy)imidazo[1,2-a]pyridine-3-carboxamide] |
| ≤ 50 | COc1ccn2c(C(=O)Nc3cc(-c4noc(CC5COC5)n4)ccc3C)cnc2c1 [Compound I-633, 7-Methoxy-N-[2-methyl-5-[5-(oxetan-3-ylmethyl)-1,2,4-oxadiazol-3-yl]phenyl]imidazo[1,2-a]pyridine-3-carboxamide] |
| ≤ 50 | Cc1ccc(-c2noc([C@@H]3CC4(CC4)CN3)n2)cc1NC(=O)c1cnc2cc(-c3cscn3)ccn12 [Compound I-635, N-[5-[5-[(6S)-5-azaspiro[2.4]heptan-6-yl]-1,2,4-oxadiazol-3-yl]-2-methyl-phenyl]-7-thiazol-4-yl-imidazo[1,2-a]pyridine-3-carboxamide] |
| ≤ 50 | COCc1ccn2c(C(=O)Nc3cc(-c4noc([C@@H]5CC6(CC6)CN5)n4)ccc3C)cnc2c1 [Compound I-638, N-[5-[5-[(6S)-5-azaspiro[2.4]heptan-6-yl]-1,2,4-oxadiazol-3-yl]-2-methyl-phenyl]-7-(methoxymethyl)imidazo[1,2-a]pyridine-3-carboxamide] |
| ≤ 50 | CCc1nc(-c2ccc(C)c(NC(=O)c3cnc4cc(-c5csc(CO)n5)ccn34)c2)no1 [Compound I-672] |
| ≤ 50 | Cc1nc(-c2ccc(C)c(NC(=O)c3cnc4cc(Cl)ccn34)c2)no1 [Compound I-675] |
| ≤ 50 | Cc1ccc(-c2ncon2)cc1NC(=O)c1cnc2cc(-c3ccn(C)n3)ccn12 [Compound I-684] |
| ≤ 50 | Cc1ccc(-c2ncon2)cc1NC(=O)c1cnc2cc(-c3csc(CO)n3)ccn12 [Compound I-685] |
| ≤ 50 | Cc1ccc(-c2ncon2)cc1NC(=O)c1cnc2cc(-c3cscn3)ccn12 [Compound I-694] |
